Reference: the supplement of paper PMC10307832

How the values were obtained:
Assay in all cases: relative viability (nuclei count vs DMSO), 5 days (fraction); higher = more cells survive
[1] = compound: C1CNCCC1C2=CC(=NN2)C3=CC=NC=C3 + Cc1nc(NC(=O)N2CCC[C@H]2C(N)=O)sc1-c1ccnc(C(C)(C)C(F)(F)F)c1 [Alpelisib] (partner 2 µM)
Procedure, shortened: (§1)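 After 5 days of treatment, lung cancer cells in 1536-well plates were fixed and stained in a single step (final 0.05% Triton X-100, 1% formaldehyde, 1 ug/ml Hoechst) and their nuclei counted on 4× images. Treatment had been applied by pin tool the day after seeding as one drug alone or as a fixed anchor-drug dose with five library-drug doses (not always all listed) in √10 steps. Relative viability is the nuclei count of treated wells divided by that of vehicle wells, and values are medians of duplicate plates.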

[2] = compound: C1CNCCC1C2=CC(=NN2)C3=CC=NC=C3 + Nc1nc2[nH]cc(CCc3ccc(C(=O)N[C@@H](CCC(=O)O)C(=O)O)cc3)c2c(=O)[nH]1 [Pemetrexed] (partner 0.2 µM)
Procedure, shortened: as §1

[3] = compound: C[C@@H](N)c1ccc(C(=O)Nc2ccnc3[nH]ccc23)cc1 + CC1(C)CCC(c2ccc(Cl)cc2)=C(CN2CCN(c3ccc(C(=O)NS(=O)(=O)c4ccc(N[C@H](CCN5CCOCC5)CSc5ccccc5)c(S(=O)(=O)C(F)(F)F)c4)cc3)CC2)C1 [Navitoclax] (partner 0.5 µM)
Procedure, shortened: as §1

[4] = compound: C[C@@H](N)c1ccc(C(=O)Nc2ccnc3[nH]ccc23)cc1 + CS(=O)(=O)CCNCc1ccc(-c2ccc3ncnc(Nc4ccc(OCc5cccc(F)c5)c(Cl)c4)c3c2)o1 [Lapatinib] (partner 2 µM)
Procedure, shortened: as §1

## UMC-11
[1]; first compound 0.08 µM
  relative viability: 0.815
[1]; first compound 0.8 µM
  relative viability: 1.22
[1]; first compound 2.53 µM
  relative viability: 0.911
[1]; first compound 8 µM
  relative viability: 1.03
[2]; first compound 0.08 µM
  relative viability: 0.653
[2]; first compound 0.8 µM
  relative viability: 0.9
[2]; first compound 2.53 µM
  relative viability: 0.874
[2]; first compound 8 µM
  relative viability: 0.811
[3]; first compound 0.04 µM
  relative viability: 0.318
[3]; first compound 0.1265 µM
  relative viability: 0.323
[3]; first compound 0.4 µM
  relative viability: 0.332
[3]; first compound 1.265 µM
  relative viability: 0.27
[3]; first compound 4 µM
  relative viability: 0.211
[4]; first compound 0.04 µM
  relative viability: 1.02
[4]; first compound 0.1265 µM
  relative viability: 0.974
[4]; first compound 0.4 µM
  relative viability: 1.05
[4]; first compound 1.265 µM
  relative viability: 0.459
[4]; first compound 4 µM
  relative viability: 0.812
